Assay results reported in patent US10058534B2, “Benzothiophene derivatives and compositions thereof as selective estrogen receptor degraders” (NOVARTIS AG, priority 2013, dated 2018).

Target: ERα (Homo sapiens (Human), UniProt P03372)
Test: ERα degradation (MCF7 cells), in-cell Western
Format: cell-based
Conditions: for IC50: inflection point of the degradation in response to ligand concentration; for IC50 / % ERα remaining: MCF7 cells; for % ERα remaining: remaining ERα protein at 10 μM ligand, relative to DMSO control; for ER Percentage remaining: degradation potential, comparison of X position
Procedure: ERα Degradation (MCF7 Cells)
The column titled MCF7 IC50 reports the inflection point of the inhibition of transcription in MCF7 cells as described above. Percentage ERα remaining reports the remaining ERα protein measured at 10 μM concentration of the ligand as described above. The column ERα IC50 reports the inflection point of the degradation in response to the ligand concentration.

Sequence of ERα (P03372 whole entry): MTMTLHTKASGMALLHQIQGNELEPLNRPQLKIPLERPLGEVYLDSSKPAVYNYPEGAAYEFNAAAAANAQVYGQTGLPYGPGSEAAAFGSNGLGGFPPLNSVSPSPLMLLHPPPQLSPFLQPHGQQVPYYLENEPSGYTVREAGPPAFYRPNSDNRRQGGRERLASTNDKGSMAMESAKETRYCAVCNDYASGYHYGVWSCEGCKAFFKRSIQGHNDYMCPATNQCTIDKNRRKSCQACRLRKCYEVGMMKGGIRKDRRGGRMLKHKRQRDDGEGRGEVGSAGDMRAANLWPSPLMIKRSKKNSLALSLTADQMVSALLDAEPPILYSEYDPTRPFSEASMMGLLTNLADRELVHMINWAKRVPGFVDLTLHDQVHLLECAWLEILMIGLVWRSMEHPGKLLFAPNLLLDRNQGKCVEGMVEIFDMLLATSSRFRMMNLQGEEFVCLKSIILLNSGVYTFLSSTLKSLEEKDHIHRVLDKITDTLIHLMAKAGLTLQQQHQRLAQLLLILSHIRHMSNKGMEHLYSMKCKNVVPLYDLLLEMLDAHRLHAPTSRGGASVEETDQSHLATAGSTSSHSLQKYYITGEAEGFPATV

Compound | IC50 | % ERα remaining | ER Percentage remaining
O=C(O)/C=C/c1ccc(Oc2c(-c3ccccc3)sc3cc(O)ccc23)cc1 [Example 60, (E)-3-(4-((6-hydroxy-2-phenylbenzo[b]thiophen-3-yl)oxy)phenyl)-acrylic acid] | 26 nM | 23% | –
O=C(O)CCc1ccc(Oc2c(-c3ccc(O)cc3)sc3cc(O)ccc23)cc1 [Example 1, 3-(4-((6-hydroxy-2-(4-hydroxyphenyl)-benzo[b]thiophen-3-yl)oxy)phenyl)propanoic acid] | 31 nM | 58% | –
CC(C)(C)c1ccccc1-c1sc2cc(O)ccc2c1Oc1ccc(/C=C/C(=O)O)cc1 [Example 20, (E)-3-(4-((2-(2-(tert-butyl)phenyl)-6-hydroxybenzo[b]thiophen-3-yl)oxy)phenyl)-acrylic acid] | 1 nM | 22% | –
CC(C)(C)c1ccc(-c2sc3cc(O)ccc3c2Oc2ccc(/C=C/C(=O)O)cc2)cc1 [Example 22, (E)-3-(4-((2-(4-(tert-butyl)phenyl)-6-hydroxybenzo[b]thiophen-3-yl)oxy)phenyl)-acrylic acid] | 32 nM | 18% | –
O=C(/C=C/c1ccc(Oc2c(-c3ccc(O)cc3)sc3cc(O)ccc23)cc1)NCCC(F)(F)F [Example 31, (E)-3-(4-((6-hydroxy-2-(4-hydroxyphenyl)benzo[b]thiophen-3-yl)oxy)phenyl)-N-(3,3,3-trifluoropropyl)acrylamide] | 1 nM | 45% | –
CCCn1cncc1/C=C/c1ccc(Oc2c(-c3ccc(O)cc3)sc3cc(O)ccc23)cc1 [Example 75, (E)-2-(4-hydroxyphenyl)-3-(4-(2-(1-propyl-1H-imidazol-5-yl)vinyl)phenoxy)benzo [b]thiophen-6-ol] | – | 41% | –
O=C(O)/C=C/c1ccc(Oc2c(-c3cccc(F)c3)sc3cc(O)ccc23)cc1 [Example 7, (E)-3-(4-((2-(3-fluorophenyl)-6-hydroxybenzo[b]thiophen-3-yl)oxy)phenyl)-acrylic acid] | – | 22% | –
C/C(=C\C(=O)O)c1ccc(Oc2c(-c3ccc(O)cc3)sc3cc(O)ccc23)cc1 [Example 62, (E)-3-(4-((6-hydroxy-2-(4-hydroxyphenyl)-benzo[b]thiophen-3-yl)oxy)phenyl)but-2-enoic acid] | – | 42% | –
CC(=O)c1ccccc1-c1sc2cc(O)ccc2c1Oc1ccc(/C=C/C(=O)O)cc1 [Example 19, (E)-3-(4-((2-(2-acetylphenyl)-6-hydroxybenzo[b]thiophen-3-yl)oxy)phenyl)-acrylic acid] | 7 nM | 19% | –
O=C(O)/C=C/c1ccc(C(=O)c2c(-c3ccc(O)cc3)sc3cc(O)ccc23)cc1 [reference compound] | – | – | 60 Percentage
O=C(O)/C=C/c1ccc(Oc2c(-c3ccc(C(F)F)cc3)sc3cc(O)ccc23)cc1 [Example 27, (E)-3-(4-((2-(4-(difluoromethyl)phenyl)-6-hydroxybenzo[b]thiophen-3-yl)oxy)phenyl)acrylic acid] | 85 nM | 21% | –
Cc1ccccc1-c1sc2cc(O)ccc2c1Oc1ccc(/C=C/C(=O)O)cc1 [Example 5, (E)-3-(4-((6-hydroxy-2-(o-tolyl)benzo-[b]thiophen-3-yl)oxy)-phenyl)acrylic acid] | 4 nM | 20% | –
CC(C)c1ccccc1-c1sc2cc(O)ccc2c1Oc1ccc(/C=C/C(=O)O)cc1 [Example 4, (E)-3-(4-((6-hydroxy-2-(2-isopropylphenyl)benzo[b]thiophen-3-yl)oxy)phenyl)acrylic acid] | 0.4 nM | 13% | –
CCCc1nnc(/C=C/c2ccc(Oc3c(-c4ccc(F)cc4C)sc4cc(O)ccc34)cc2)o1 [compound 47, (E)-2-(4-fluoro-2-methylphenyl)-3-(4-(2-(5-propyl-1,3,4-oxadiazol-2-yl)vinyl)phenoxy)benzo [b]thiophen-6-ol] | – | 43% | –
NC(=O)/C=C/c1ccc(Oc2c(-c3ccc(O)cc3)sc3cc(O)ccc23)cc1 [Example 64, (E)-3-(4-((6-hydroxy-2-(4-hydroxyphenyl)-benzo[b]thiophen-3-yl)oxy)phenyl)acrylamide] | – | 48% | –
Cc1c(O)cccc1-c1sc2cc(O)ccc2c1Oc1ccc(/C=C/C(=O)O)cc1 [Example 16, (E)-3-(4-((6-hydroxy-2-(3-hydroxy-2-methyl-phenyl)benzo[b]thiophen-3-yl)oxy)phenyl)-acrylic acid] | 6 nM | 26% | –

Compound | IC50 | % ERα remaining | ER Percentage remaining
O=C(O)/C=C/c1ccc(Oc2c(-c3ccc(OC(F)(F)F)cc3)sc3cc(O)ccc23)cc1 [Example 59, (E)-3-(4-((6-hydroxy-2-(4-(trifluoromethoxy)-phenyl)benzo[b]thiophen-3-yl)oxy)phenyl)-acrylic acid] | 30 nM | 17% | –
Cn1nnnc1/C=C/c1ccc(Oc2c(-c3ccc(F)cc3)sc3cc(O)ccc23)cc1 [Example 52, (E)-2-(4-fluorophenyl)-3-(4-(2-(1-methyl-1H-tetrazol-5-yl)vinyl)phenoxy)benzo [b]thiophen-6-ol] | 223 nM | 41% | –
Cc1ccc(C)c(-c2sc3cc(O)ccc3c2Oc2ccc(/C=C/C(=O)O)cc2)c1 [Example 14, (E)-3-(4-((2-(2,5-dimethylphenyl)-6-hydroxybenzo[b]thiophen-3-yl)oxy)phenyl)-acrylic acid] | 6 nM | 15% | –
Cc1cc(F)ccc1-c1sc2cc(O)ccc2c1Oc1ccc(/C=C/c2nnc(C3CC3)o2)cc1 [Example 76, (E)-3-(4-(2-(5-cyclopropyl-1,3,4-oxadiazol-2-yl)vinyl)phenoxy)-2-(4-fluoro-2-methylphenyl)benzo[b] thiophen-6-ol] | 47 nM | 42% | –
O=C(O)/C=C/c1ccc(Oc2c(-c3ccc(O)cc3)sc3c(F)c(O)ccc23)cc1 [Example 39, (E)-3-(4-((7-fluoro-6-hydroxy-2-(4-hydroxyphenyl)benzo[b]thiophen-3-yl)oxy)phenyl)acrylic acid] | 70 nM | 24% | –
O=C(O)/C=C/c1ccc(Oc2c(-c3ccc(Cl)cc3)sc3cc(O)ccc23)cc1 [Example 6, (E)-3-(4-((2-(4-chlorophenyl)-6-hydroxybenzo[b]thiophen-3-yl)oxy)phenyl)-acrylic acid] | – | 21% | –
O=C(/C=C/c1ccc(Oc2c(-c3ccc(O)cc3)sc3cc(O)ccc23)cc1)NCCO [Example 65, (E)-3-(4-((6-hydroxy-2-(4-hydroxyphenyl)benzo[b]thiophen-3-yl)oxy)phenyl)-N-(2-hydroxyethyl)acrylamide] | – | 47% | –
Cn1nnc(/C=C/c2ccc(Oc3c(-c4ccc(O)cc4)sc4cc(O)ccc34)cc2)n1 [compound 55, (E)-2-(4-hydroxyphenyl)-3-(4-(2-(2-methyl-2H-tetrazol-5-yl)vinyl)-phenoxy)benzo[b] thiophen-6-ol] | 34 nM | 33% | –
Cc1cc(F)ccc1-c1sc2cc(O)ccc2c1Oc1ccc(/C=C/c2nnnn2C)cc1 [Example 51, (E)-2-(4-fluoro-2-methylphenyl)-3-(4-(2-(1-methyl-1H-tetrazol-5-yl)vinyl)phenoxy)-benzo[b]thiophen-6-ol] | 11 nM | 41% | –
CCCn1nnnc1/C=C/c1ccc(Oc2c(-c3ccc(F)cc3C)sc3cc(O)ccc23)cc1 [Example 53, (E)-2-(4-fluoro-2-methylphenyl)-3-(4-(2-(1-propyl-1H-tetrazol-5-yl)vinyl)phenoxy) benzo[b]thiophen-6-ol] | – | 43% | –
O=C(O)/C=C/c1ccc(-c2c(-c3ccc(O)cc3)sc3cc(O)ccc23)cc1 [reference compound] | – | – | 76 Percentage
Cc1noc(C)c1-c1sc2cc(O)ccc2c1Oc1ccc(/C=C/C(=O)O)cc1 [Example 15, (E)-3-(4-((2-(3,5-dimethylisoxazol-4-yl)-6-hydroxybenzo-[b]thiophen-3-yl)oxy)-phenyl)acrylic acid] | 12 nM | 20% | –
COc1ccc(-c2sc3cc(O)ccc3c2Oc2ccc(/C=C/C(=O)O)cc2)cc1 [Example 26, (E)-3-(4-((6-hydroxy-2-(4-methoxyphenyl)benzo[b]thiophen-3-yl)oxy)phenyl)acrylic acid] | 21 nM | 18% | –
CCc1cccc(CC)c1-c1sc2cc(O)ccc2c1Oc1ccc(/C=C/C(=O)O)cc1 [Example 130, (E)-3-(4-((2-(2,6-diethylphenyl)-6-hydroxybenzo[b]thiophen-3-yl)oxy)phenyl)acrylic acid] | – | 12% | –
O=C(O)/C=C/c1ccc(Oc2c(-c3ccccc3Cl)sc3cc(O)ccc23)cc1 [Example 9, (E)-3-(4-((2-(2-chlorophenyl)-6-hydroxybenzo[b]thiophen-3-yl)oxy)phenyl)-acrylic acid] | 6 nM | 18% | –
O=C(O)/C=C/c1ccc(Oc2c(-c3ccc(O)c(F)c3)sc3cc(O)ccc23)cc1 [Example 40, (E)-3-(4-((2-(3-fluoro-4-hydroxyphenyl)-6-hydroxybenzo[b]thiophen-3-yl)oxy)phenyl)acrylic acid] | 22 nM | 23% | –
